Values quoted from earlier work as cited in US20130150551A1, “PROCESSES FOR THE PRODUCTION OF HYDROGENATED PRODUCTS AND DERIVATIVES THEREOF” (BIOAMBER S.A.S., priority 2010, published 2013).

Conditions: first acid group

Question: Which pKa1 does the source give for `O=C(O)CCCCC(=O)O` [AA, adipic acid] here?
Answer: The pKa1 was 4.43.
